Legend:
[1] = Selectivity index, ratio of CC50 for […] to IC50 for YFV-17D infected in […]; type: toxicity, cell-based; details: read-out: Ratio CC50/IC50
Dengue virus = assay: Antiviral activity against DENV-NGC-1 infected in […] incubated for 7 days by CellTiter 96 luminescent cell viability assay; type: functional, organism-based; details: NGC-1, BHK, 168 h
[2] = Cytotoxicity against […] infected with DENV-NGC-1 incubated for 7 days by CellTiter 96 luminescent cell viability assay; type: toxicity, cell-based; details: time 7 day
Yellow fever virus = assay: Antiviral activity against YFV-17D infected in […] incubated for 7 days by CellTiter 96 luminescent cell viability assay; type: functional, organism-based; details: 168 h
[3] = Selectivity index, ratio of CC50 for […] to IC50 for JEV-SA14 infected in […]; type: toxicity, cell-based; details: read-out: Ratio CC50/IC50
[4] = Selectivity index, ratio of CC50 for […] to IC50 for DENV-NGC infected in […]; type: toxicity, cell-based; details: read-out: Ratio CC50/IC50
[5] = tested on: Japanese encephalitis virus; assay: Antiviral activity against JEV-SA14 infected in […] incubated for 7 days by CellTiter 96 luminescent cell viability assay; type: functional, organism-based; details: 168 h
Zika virus = assay: Antiviral activity against ZIKV-SMGC-1 infected in […] incubated for 7 days by CellTiter 96 luminescent cell viability assay; type: functional, organism-based; details: SMGC-1, BHK, 168 h
[6] = Cytotoxicity against […] infected with YFV-17D incubated for 7 days by CellTiter 96 luminescent cell viability assay; type: toxicity, cell-based; details: time 7 day
[7] = Cytotoxicity against […] infected with ZIKV-SMGC-1 incubated for 7 days by CellTiter 96 luminescent cell viability assay; type: toxicity, cell-based; details: time 7 day
[8] = Cytotoxicity against […] infected with JEV-SA14 incubated for 7 days by CellTiter 96 luminescent cell viability assay; type: toxicity, cell-based; details: time 7 day
[9] = Selectivity index, ratio of CC50 for […] to IC50 for ZIKV-SMGC-1 infected in […]; type: toxicity, cell-based; details: read-out: Ratio CC50/IC50
[10] = Selectivity index, ratio of CC50 for human RD cells to IC50 for EV71 infected in human RD cells; type: toxicity, cell-based; details: read-out: Ratio CC50/IC50
[11] = Cytotoxicity against human RD cells infected with EV71 incubated for 3 days by CellTiter 96 luminescent cell viability assay; type: toxicity, cell-based; details: time 3 day
Enterovirus A71 = assay: Antiviral activity against EV71 infected in human RD cells incubated for 3 days by CellTiter 96 luminescent cell viability assay; type: functional, organism-based; details: Enterovirus A, 71, RD, 72 h
Coxsackievirus A16 = assay: Antiviral activity against CA16 infected in human RD cells incubated for 3 days by CellTiter 96 luminescent cell viability assay; type: functional, organism-based; details: Enterovirus A, 72 h
[12] = Cytotoxicity against human RD cells infected with CA16 incubated for 3 days by CellTiter 96 luminescent cell viability assay; type: toxicity, cell-based; details: time 3 day
[13] = Selectivity index, ratio of CC50 for human RD cells to IC50 for CA16 infected in human RD cells; type: toxicity, cell-based; details: read-out: Ratio CC50/IC50

Structure (SMILES)	selectivity ratio [1]	IC50 (Dengue virus) [nM]	CC50 at 168 h [2] [nM]	IC50 (Yellow fever virus) [nM]	selectivity ratio [3]	selectivity ratio [4]	IC50 [5] [nM]	IC50 (Zika virus) [nM]	CC50 at 168 h [6] [nM]	CC50 at 168 h [7] [nM]	CC50 at 168 h [8] [nM]	selectivity ratio [9]	selectivity ratio [10]	CC50 at 72 h [11] [nM]	IC50 (Enterovirus A71) [nM]	IC50 (Coxsackievirus A16) [nM]	CC50 at 72 h [12] [nM]	selectivity ratio [13]
O=C(c1ccc(C(F)(F)F)cc1O)c1[nH]c(Cl)c(Cl)c1-n1c(C(=O)c2ccc(C(F)(F)F)cc2O)cc(Cl)c1Sc1ncc[nH]1	2.93	1150	3750	1280	2.98	3.26	1260	970	3750	3750	3750	3.87	–	–	–	–	–	–
O=C(c1ccc(C(F)(F)F)cc1O)c1[nH]c(Cl)c(Cl)c1-n1c(C(=O)c2ccc(C(F)(F)F)cc2O)cc(Cl)c1SCCO	2.41	150	500	600	2.13	3.34	680	70	1450	1420	1450	7.13	2.85	1570	550	–	–	–
O=C(c1ccc(C(F)(F)F)cc1O)c1[nH]c(Cl)c(Cl)c1-n1c(C(=O)c2ccc(C(F)(F)F)cc2O)cc(Cl)c1Sc1nc[nH]n1	0.77	–	–	24300	0.64	–	29400	5670	18600	13800	18700	2.44	–	–	–	–	–	–
O=C(c1ccc(C(F)(F)F)cc1O)c1[nH]c(Cl)c(Cl)c1-n1c(C(=O)c2ccc(C(F)(F)F)cc2O)cc(Cl)c1Sc1nnnn1CCO	1.47	–	–	8310	–	–	–	6410	12200	8010	–	1.25	2.27	10800	4770	2510	15300	6.1
O=C(c1ccc(C(F)(F)F)cc1O)c1[nH]c(Cl)c(Cl)c1-n1c(C(=O)c2ccc(C(F)(F)F)cc2O)cc(Cl)c1SCc1cccnc1	–	240	320	–	–	1.33	–	280	–	–	–	1.14	2.1	570	270	100	860	8.61
O=C(c1ccc(C(F)(F)F)cc1O)c1[nH]c(Cl)c(Cl)c1-n1c(C(=O)c2ccc(C(F)(F)F)cc2O)cc(Cl)c1SCc1ncccn1	–	–	–	–	–	–	–	–	–	610	–	–	2.78	560	200	80	830	10.4
O=C(c1ccc(C(F)(F)F)cc1O)c1[nH]c(Cl)c(Cl)c1-n1c(C(=O)c2ccc(C(F)(F)F)cc2O)cc(Cl)c1SCCc1ccccn1	1.07	–	–	570	0.98	–	620	150	610	25400	610	4.07	5.4	270	50	20	350	17.5
O=C(c1ccc(C(F)(F)F)cc1O)c1[nH]c(Cl)c(Cl)c1-n1c(C(=O)c2ccc(C(F)(F)F)cc2O)cc(Cl)c1Sc1nc2ccccc2s1	1.43	1040	110	820	1.68	0.11	700	910	1170	17100	1180	0.12	–	–	–	130	1460	11.3
[N-]=[N+]=NCCCSc1c(Cl)cc(C(=O)c2ccc(C(F)(F)F)cc2O)n1-c1c(C(=O)c2ccc(C(F)(F)F)cc2O)[nH]c(Cl)c1Cl	–	–	–	–	3.44	–	90	90	–	500	310	–	–	–	–	–	–	–

Source: ChEMBL document CHEMBL5113415, “Synthesis of 10,10'-bis(trifluoromethyl) marinopyrrole A derivatives and evaluation of their antiviral activities in vitro” (Eur J Med Chem, 2022)
